In one assay the test system is TCR1. The experiment in a line: Multiplexed TCR/library dropout screen, mean ES. The format is cell-based, mouse. The note with it: two I-Ag7 libraries combined, mixture of seven TCRs, dropout replicates (n = 6); one biological experiment. The text has this:
(§1) Finally, we sought to address two important aspects of antigen discovery techniques. First, we assessed whether SABR-II screens can directly read out the strength of TCR–pMHC binding. To that end, we selected six known BDC2.5 ligands across a range of ES values (Extended Data Fig. 9a) and we measured the functional avidity of their recognition by BDC2.5 TCR in vitro. Bone-marrow-derived dendritic cells were pulsed with a range of concentrations of peptides corresponding to the epitopes and used to present the peptides to BDC2.5 TCR-expressing 5KC cells. Secretion of mIL-2 was measured by ELISA and used to determine the functional avidity as EC50 (concentration of the peptide needed to induce half-maximal mIL-2) (Extended Data Fig. 9b). We observed that there was a modest negative correlation between the EC50 values of the epitopes and their ES values (Extended Data Fig. 9c). […] Second, we evaluated whether we could increase the throughput of SABR-II screens by multiplexing TCRs and libraries at the cellular level. We combined the two previously described I-Ag7 libraries in equal proportions according to their size and used it as a single library. We also employed a dropout strategy, in which a mixture of seven TCRs was screened in replicate, where one TCR was left out in each replicate. After single enrichment, we determined the mean ES of all replicates that contained a given TCR and used it to identify the cognate epitope of that TCR (Extended Data Fig. 10 and Supplementary Table 6). Using this strategy, we were able to successfully recapitulate the results for four out of four TCRs previously identified in individual screens. The use of such a strategy will greatly enhance the throughput or SABR-II screens by reducing the hands-on sort time from 1 h per TCR to 20 min per TCR.
(§2) For SABR library screens, 3 × 10^6 NFAT–GFP Jurkat cells expressing the SABR library were labeled with CellTrace Violet (BioLegend) according to the manufacturer’s protocol before incubation with 3 × 10^6 Jurkat cells expressing the TCR of interest. These mixtures were incubated in a six-well plate for 16–20 h. Cells were stained with anti-CD69-APC-Cy7 where indicated (BioLegend) and the top 1–2% of GFP^+CD69^+ cells were sorted for genomic DNA extraction, indexing and sequencing (see below). Multiplexed assays were scaled on a per-TCR basis (for example 3 × 10^6 for each of three TCRs against 9 × 10^6 library cells). For single SABR assays, unless otherwise defined, 5 × 10^5 SABR expressing NFAT–GFP Jurkat cells (or 5KC cells) were labeled with CellTrace Violet (BioLegend) according to the manufacturer’s protocol before incubation with 5 × 10^5 TCR-expressing Jurkat cells (or 5KC cells) in a round-bottom 96-well plate for 16–20 h. Cells were stained with anti-CD69-APC-Cy7 when indicated and acquired on the Attune NxT flow cytometer (Thermo Fisher Scientific). All flow analysis was performed using FlowJo (BD). For Daudi cell co-culture, 1 × 10^6 Jurkat cells expressing the TCR of interest were incubated with 1 × 10^6 Daudi cells expressing a SABR of interest for 3 days. On day 3, cells were labeled with anti-RT1B-PE and anti-Fas-APC-Cy7 before being acquired on the Attune NxT flow cytometer.
(§3) Genomic DNA was extracted from sorted cells immediately after sorting, using the PureLink genomic DNA extraction kit (Life Technologies). The integrated SABR vectors were amplified with KOD polymerase (Millipore) and two rounds of amplification. In the first round, IDT-UD-SABR-C2-F and IDT-UD-SABR-C2-R primers were used to amplify the epitope. In the second round, UDI0001-R and UDI0001-F primers (representative of index 1) were used to add Illumina unique dual indexes (UDIs) to the amplicons. A different UDI was used for each sample. The reactions were pooled and purified with the NucleoSpin gel and PCR purification kit (Takara). The purified PCR product was checked before sequencing using 2% agarose gel and subjected to sequencing on a HiSeq4000 (Fulgent Genetics). […]

In a further assay the test system is TCR24. The experiment in a line: Multiplexed TCR/library dropout screen, mean ES. The note with it: Avg ES for all the replicates that contain that TCR (TCR24). The assay is classed as cell-based, mouse.
Source text: as §1, §2, §3

The next assay relates to TCR2. The experiment in a line: Multiplexed TCR/library dropout screen, mean ES. The format is cell-based, mouse. The note with it: Avg ES for all the replicates that contain that TCR (TCR2).
Source text: as §1, §2, §3

Another assay has as its system TCR37. The experiment in a line: Multiplexed TCR/library dropout screen, mean ES. The assay is classed as cell-based, mouse. The note with it: Avg ES for all the replicates that contain that TCR (TCR37).
Source text: as §1, §2, §3

A further assay relates to TCR3. The experiment in a line: Multiplexed TCR/library dropout screen, mean ES. The note with it: two I-Ag7 libraries combined, mixture of seven TCRs, dropout replicates (n = 6). The assay is classed as cell-based, mouse.
Source text: as §1, §2, §3

The test system of a further assay is TCR5. As to the kind of experiment: Multiplexed TCR/library dropout screen, mean ES. The assay is classed as cell-based, mouse. The note with it: two I-Ag7 libraries combined, mixture of seven TCRs, dropout replicates (n = 6).
Source text: as §1, §2, §3

In a further assay the test system is TCR7. The experiment in a line: Multiplexed TCR/library dropout screen, mean ES. The assay is classed as cell-based, mouse. The note with it: two I-Ag7 libraries combined, mixture of seven TCRs, dropout replicates (n = 6).
Source text: as §1, §2, §3

The test system of another assay is Jurkat cells, No TCR. The experiment in a line: Single SABR-II co-incubation, background without TCR. The assay is classed as cell-based, human. Put shortly: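 Single SABR-II constructs for putative cognate epitopes were expressed in CellTrace Violet-labelled NFAT–GFP Jurkat cells and co-incubated 1:1 (5 × 10^5 each) with TCR-expressing Jurkat cells for 16–20 h. GFP (with CD69 staining when indicated) was measured by flow cytometry. Wells with GFP above the no-TCR control were scored positive.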

Where [1] appears, read: No TCR, Fig 3B, 18 h, biological replicate 1.
Where [2] appears, read: No TCR, Fig 3B, 18 h, biological replicate 2.
[3] abbreviates: No TCR, Fig 3B, 18 h, biological replicate 3.
Setting [4] is: No TCR, Fig 4B, technical replicate 1.
Where [5] appears, read: No TCR, Fig 4B, technical replicate 2.

The text below walks through data of publication PMC11093748, “De novo identification of CD4^+ T cell epitopes” (Nature Methods, 2024).

Take AAVEEGIVAGGGVTLL: the “Mean Dropout Enrichment Score” value is given as 9.635e-6 with TCR1, -1.302e-6 in the assay with TCR3, -4.831e-6 in the assay with TCR5 and -1.2378e-6 in the assay on TCR7. For the same sequence, the “ES for each dropout, LOO_TCR24” value in the assay on TCR24 came out at 1.546e-6. In addition, the “ES for each dropout, LOO_TCR2” value in the assay with TCR2 came to 1.97e-6. Further, the “ES for each dropout, LOO_TCR37” value with TCR37 is 2.247e-6.

As for AEKVRNLPAGHGLNAQ, the “Mean Dropout Enrichment Score” value in the assay with TCR1 is listed as -4.113e-5; with TCR3, -2.694e-5; with TCR5, -3.449e-5; in the assay on TCR7 it was -3.038e-5. In addition, in the assay with TCR24, the “ES for each dropout, LOO_TCR24” value is reported as -1.89e-5. Also, the “ES for each dropout, LOO_TCR2” value with TCR2 is -1.229e-5. The “ES for each dropout, LOO_TCR37” value with TCR37 is -2.944e-5.

As to AGGVAVIKAGAATEV, the “Mean Dropout Enrichment Score” value with TCR1 amounted to 1.903e-5; in the assay on TCR3, 3.191e-5; with TCR5, 1.931e-5; with TCR7, 2.296e-5. For the same sequence, in the assay on TCR24, the “ES for each dropout, LOO_TCR24” value worked out at 2.636e-5. The “ES for each dropout, LOO_TCR2” value with TCR2 is 7.935e-6. Besides, the “ES for each dropout, LOO_TCR37” value with TCR37 is given as 1.413e-5.

For AKAAVEEGIVAGGGV, the “Mean Dropout Enrichment Score” value in the assay with TCR1 was 1.526e-5; in the assay on TCR3 it was 1.247e-5; with TCR5 it was 9.209e-6; with TCR7 it was -7.192e-6. The “ES for each dropout, LOO_TCR24” value with TCR24 is given as 8.2968e-7. Also, the “ES for each dropout, LOO_TCR2” value in the assay with TCR2 is 1.371e-5. The “ES for each dropout, LOO_TCR37” value in the assay on TCR37 came to 7.483e-6.

For ALVREGLRNVAAGANP, the “Mean Dropout Enrichment Score” value with TCR1, in the assay with TCR3, in the assay on TCR5 and with TCR7 was -1.224e-5 in each case. Also, the “ES for each dropout, LOO_TCR24” value in the assay on TCR24 is reported as -1.224e-5. Also, in the assay on TCR2, the “ES for each dropout, LOO_TCR2” value was -1.224e-5. In the assay on TCR37, the “ES for each dropout, LOO_TCR37” value was -1.224e-5.

As for LQTLALNAARDP, the “%GFP+CD69+ cells of SABR-NFAT-GFP-Jurkat cells” value (shortened to “%GFP+CD69+ cells”) stood at 3.08% with Jurkat cells, No TCR (No TCR, Ext. Data Fig. 6C, 18-20 hr, technical replicate 1); 3.07% in the assay with Jurkat cells, No TCR (No TCR, Ext. Data Fig. 6C, 18-20 hr, technical replicate 2); 2.51% with Jurkat cells, No TCR (setting [1]); 6.93% with Jurkat cells, No TCR (setting [2]); 3.6% with Jurkat cells, No TCR (setting [3]); 1.39% in the assay with Jurkat cells, No TCR (setting [4]). Moreover, the “%GFP+CD69+ cells” value in the assay on Jurkat cells, No TCR (setting [5]) is recorded as 1.36%; in the assay on Jurkat cells, No TCR (No TCR, Fig 5C, technical replicate 1), 0.73%; with Jurkat cells, No TCR (No TCR, Fig 5C, technical replicate 2), 0.75%.

On to SHLVEALYLVCGERG, for which the “%GFP+CD69+ cells” value in the assay on Jurkat cells, No TCR (Mock TCR, Fig 4B, technical replicate 1) was 3.46%; with Jurkat cells, No TCR (Mock TCR, Fig 4B, technical replicate 2), 3.03%; in the assay on Jurkat cells, No TCR (setting [1]) it was 2%; with Jurkat cells, No TCR (setting [2]), 3.5%; with Jurkat cells, No TCR (setting [3]) it was 1.84%; with Jurkat cells, No TCR (setting [4]), 0.93%. Also, the “%GFP+CD69+ cells” value was determined as 1.04% in the assay on Jurkat cells, No TCR (setting [5]) and 1.2% in the assay with Jurkat cells, No TCR (No TCR, Fig 4B, technical replicate 3).
